# Experimental data published in patent US20050100540A1, “Platelet-activating factor acetylhydrolase” (priority 1993, published 2005).
# T1: recombinant PAF-AH (Homo sapiens, UniProt Q13093)
# T1 construct: 441 amino acids; At the amino terminus, a relatively hydrophobic segment of 41 residues precedes the N-terminal amino acid (the isoleucine at position 42); made in house; host or cells: E. coli (constructs trp AH / pUC trp AH)
# T1 sequence (Q13093 42-441): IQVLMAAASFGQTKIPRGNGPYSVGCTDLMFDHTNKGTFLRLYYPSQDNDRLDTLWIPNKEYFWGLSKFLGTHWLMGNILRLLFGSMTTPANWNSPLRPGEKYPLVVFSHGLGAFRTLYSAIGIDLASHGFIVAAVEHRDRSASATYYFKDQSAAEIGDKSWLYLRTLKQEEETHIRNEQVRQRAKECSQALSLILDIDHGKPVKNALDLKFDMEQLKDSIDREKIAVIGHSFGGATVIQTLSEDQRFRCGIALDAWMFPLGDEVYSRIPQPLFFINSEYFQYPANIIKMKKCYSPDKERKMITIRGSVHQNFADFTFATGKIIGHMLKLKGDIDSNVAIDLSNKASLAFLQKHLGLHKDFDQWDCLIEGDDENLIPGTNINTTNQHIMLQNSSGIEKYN
# B1: sAH 406-3: Full length human plasma PAF-AH cDNA clone, product transiently expressed in COS 7 cells (protein)
# chain: MVPPKLHVLFCLCGCLAVVYPFDWQYINPVAHMKSSAWVNKIQVLMAAASFGQTKIPRGNGPYSVGCTDLMFDHTNKGTFLRLYYPSQDNDRLDTLWIPNKEYFWGLSKFLGTHWLMGNILRLLFGSMTTPANWNSPLRPGEKYPLVVFSHGLGAFRTLYSAIGIDLASHGFIVAAVEHRDRSASATYYFKDQSAAEIGDKSWLYLRTLKQEEETHIRNEQVRQRAKECSQALSLILDIDHGKPVKNALDLKFDMEQLKDSIDREKIAVIGHSFGGATVIQTLSEDQRFRCGIALDAWMFPLGDEVYSRIPQPLFFINSEYFQYPANIIKMKKCYSPDKERKMITIRGSVHQNFADFTFATGKIIGHMLKLKGDIDSNVAIDLSNKASLAFLQKHLGLHKDFDQWDCLIEGDDENLIPGTNINTTNQHIMLQNSSGIEKYN
# Experiments:
# [1] = target: recombinant PAF-AH encoded by clone sAH 406-3 (Homo sapiens, UniProt Q13093); type: biochemical
# recombinant PAF-AH = target: T1, recombinant PAF-AH; experiment: Inhibition of PAF hydrolysis in standard PAF hydrolysis assay; type: biochemical; conditions: 0 to 125 μM; highest concentration 5-fold greater than PAF
# Method: The most remarkable property of the PAF acetylhydrolase is its marked specificity for substrates with a short residue at the sn-2 position of the substrate. This strict specificity distinguishes PAF acetylhydrolase from other forms of PLA2. Thus, to determine if recombinant PAF-AH degrades phospholipids with long-chain fatty acids at the sn-2 position, hydrolysis of 1-palmitoyl-2-arachidonoyl-sn-glycero-3-phosphocholine (arachidonoylPC) was assayed since this is the preferred substrate for a well-characterized form of PLA2. […] In additional experiments, arachidonoylPC was included in a standard PAF hydrolysis assay at concentrations ranging from 0 to 125 μM to determine whether it inhibited the hydrolysis of PAF by recombinant PAF-AH. There was no inhibition of PAF hydrolysis even at the highest concentration of […], which was 5-fold greater than the concentration of PAF. […] Native plasma PAF-AH has several other properties that distinguish it from other phospholipases including calcium-independence and resistance to compounds that modify sulfhydryl groups or disrupt disulfides.
molecule,measurement,setting,value
"O=C(O)CN(CCN(CC(=O)O)CC(=O)O)CC(=O)O [EDTA, reference compound]",Effect on PAF-AH activity of media from cells transfected with sAH 406-3,[1],unaffected
"CCCCC/C=C\C/C=C\C/C=C\C/C=C\CCCC(=O)O[C@H](COC(=O)CCCCCCCCCCCCCCC)COP(=O)([O-])OCC[N+](C)(C)C [arachidonoylPC, 1-palmitoyl-2-arachidonoyl-sn-glycero-3-phosphocholine]",Inhibition of hydrolysis of PAF by recombinant PAF-AH,recombinant PAF-AH,no inhibition
B1,PAF-AH activity of transfected COS cell media relative to background,[1],4 fold
